Test results as given in paper PMC5849655 (European Journal of Clinical Pharmacology, 2017).
pKi: −log10 of the molar value. Read-outs that look alike come from different tables or passages of the source.

Columns and labels:
[1] = system: Caco-2 cell (human colon carcinoma cell line) monolayers; experiment: Caco-2 permeability (siponimod, reference compound); assay type: in vitro ADME; settings: SimCYP V12 input of the siponimod model
Procedure: (§1) Siponimod absorption was predicted based on the permeability of Caco-2 cell (human colon carcinoma cell line) monolayers and considered to be complete (fraction absorbed [fa] = 1). Absorption rate constant (Ka) was calculated from the first clinical data to be 0.98/h. […] A volume of distribution of 2.12 L/kg was estimated based on preclinical data observation. The initial CL estimation of the siponimod model was based on human in vitro data from HLM and recombinant enzyme kinetics [unpublished data]. By using the in vivo clearance (CL/F) together with the fractional contribution of each CYP enzyme (phenotyping data) in the SimCYP retrograde calculator, the enzyme CLint values were estimated, resulting in an improved drug exposure prediction (Table 3).

[2] = as above; assay type: in vitro ADME, human; settings: human, Caco-2; SimCYP V9 input of the siponimod model; read-out: Reference compound permeability
Procedure: as §1

[3] = cited from earlier work
CYP = settings: cited from earlier work
CYP3A5 = settings: cited from earlier work
[4] = cited from earlier work; remark: listed apart in the source
[5] = cited from earlier work; remark: listed apart in the source
Caco 2 = settings: cited from earlier work
CYP2C19 = CYP2C19 (Homo sapiens, UniProt P33261); settings: cited from earlier work; for pKi: read-out: Competitive inhibition constant, Ki (CYP2C19)
CYP2C19, sequence (P33261 whole entry): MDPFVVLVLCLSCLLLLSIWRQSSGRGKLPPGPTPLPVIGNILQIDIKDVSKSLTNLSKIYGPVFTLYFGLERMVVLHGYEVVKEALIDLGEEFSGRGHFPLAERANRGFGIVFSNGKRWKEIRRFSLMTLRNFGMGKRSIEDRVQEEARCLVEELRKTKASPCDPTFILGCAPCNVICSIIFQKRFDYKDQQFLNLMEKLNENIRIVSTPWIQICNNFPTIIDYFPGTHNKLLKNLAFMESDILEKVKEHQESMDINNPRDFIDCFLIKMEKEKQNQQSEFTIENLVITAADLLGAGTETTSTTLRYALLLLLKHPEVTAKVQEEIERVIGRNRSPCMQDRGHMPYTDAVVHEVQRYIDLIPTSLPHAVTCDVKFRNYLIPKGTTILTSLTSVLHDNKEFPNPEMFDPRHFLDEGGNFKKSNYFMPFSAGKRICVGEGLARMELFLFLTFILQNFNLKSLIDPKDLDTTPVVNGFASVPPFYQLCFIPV

With CC(C)NCC(O)COc1cccc2ccccc12 (stereo not shown) [Propranolol, reference compound] the Reference compound permeability [1] was “Propranolol 5.33 10^-6cm/s” and the Papp [2] was 5.33 ×10⁻⁶ cm/s.

For OC(Cn1cncn1)(Cn1cncn1)c1ccc(F)cc1F [fluconazole], the Compound type ([3]; ref SimCYP version 9) is given as “monoprotic base”, the Compound type ([3]; ref SimCYP version 16) is given as “monoprotic base” and the “Is the compound a CYP inducer?” value (CYP; ref SimCYP version 9) is given as “no”. For the same compound, the “Is the compound a MBI?” value (CYP; ref SimCYP version 9) was “no”, the “Is the compound a CYP inducer?” value (CYP; ref SimCYP version 16) was “no” and the “Is the compound a MBI?” value (CYP; ref SimCYP version 16) was “no”. The “Fraction unbound in vitro, fumic (CYP3A5)” value (CYP3A5; ref SimCYP version 9) was 1, the “Fraction unbound in vitro, fumic (CYP3A5)” value (CYP3A5; ref SimCYP version 16) was 1 and the “Main plasma binding protein” value ([4]; ref SimCYP version 9) was “HSA”. For the same compound, the “Main plasma binding protein” value ([4]; ref SimCYP version 16) was “HSA”, the “In vivo po clearance, CLpo” value ([5]; ref SimCYP version 9) was 1.5 L/h and the “Renal clearance in a 20-30 yr healthy male, CLR” value ([5]; ref SimCYP version 9) was 0.865 L/h. For the same compound, the “Volume of distribution, Vss” value ([5]; ref SimCYP version 9) was 0.57 L/kg, the “In vivo iv clearance, CLiv” value ([5]; ref SimCYP version 16) was 1.01 L/h and the “Renal clearance in a 20-30 yr healthy male, CLR” value ([5]; ref SimCYP version 16) was 0.700 L/h. The “Volume of distribution, Vss” value ([5]; ref SimCYP version 16) was 0.748 L/kg, the “In vivo iv clearance, CLiv” value ([5]; used in the V9 model, ref SimCYP V7) was 1.3 (SimCYP V7) L/h and the “Caco 2 permeability, P Caco 2” value (Caco 2; ref SimCYP version 9) was 29.8 10^-6cm/s. The “Caco 2 permeability, P Caco 2” value (Caco 2; ref SimCYP version 16) was 29.8 10^-6cm/s, the “Fraction unbound in vitro, fumic (CYP2C19)” value (CYP2C19; ref SimCYP version 9) was 1 and the pKi (CYP2C19; ref SimCYP version 9) was 5.70. The “Fraction unbound in vitro, fumic (CYP2C19)” value (CYP2C19; ref SimCYP version 16) was 1 and the pKi (CYP2C19; ref SimCYP version 16) was 5.70.
